Test results published in the NIST ThermoML archive (doi:10.1021/je700443d).
“And” between values parts separate entries of the source, which are not always exact repeats. Equal values may be shown once.

Details: Liquid; for vapor or sublimation pressure: Closed cell (Static) method; for mass density: determined from pressure vs temperature measurement to find liquid-full point for a closed cell

CO[Si](OC)(OC)OC [silicon tetramethoxide]
Details | mass density | vapor or sublimation pressure
334.15 K | 990 kg/m3 | 30 kPa
335.15 K | – | 30 kPa
336.15 K | – | 30 kPa
337.15 K | – | 30 kPa
338.15 K | – | 30 kPa
339.15 K | – | 30 kPa
341.15 K | – | 30 kPa
342.15 K | – | 30 kPa
343.15 K | – | 30 kPa
344.15 K | – | 30 kPa
345.15 K | – | 40 kPa
347.15 K | – | 40 kPa
348.15 K | 940 kg/m3 | 40 kPa
349.15 K | – | 40 kPa
351.15 K | – | 40 kPa
352.15 K | – | 40 kPa
353.15 K | – | 40 kPa
355.15 K | – | 40 kPa
356.15 K | – | 40 kPa
357.15 K | – | 50 kPa
358.15 K | – | 50 kPa
359.15 K | – | 50 kPa
361.15 K | – | 50 kPa
362.15 K | – | 50 kPa
363.15 K | – | 50 kPa
364.15 K | – | 50 kPa
365.15 K | 920 kg/m3 | 50 kPa
366.15 K | – | 60 kPa
368.15 K | – | 60 kPa
369.15 K | – | 60 kPa
370.15 K | – | 60 kPa
371.15 K | – | 60 kPa
372.15 K | – | 60 kPa
373.1 K | – | 70 kPa
374.15 K | – | 70 kPa
375.15 K | – | 70 kPa
377.15 K | – | 70 kPa
378.15 K | – | 80 kPa
379.15 K | – | 80 kPa
380.15 K | – | 80 kPa
381.15 K | – | 80 kPa
382.15 K | – | 90 kPa
383.15 K | 900 kg/m3 | –
384.15 K | – | 90 kPa
385.15 K | – | 90 kPa
386.15 K | – | 90 kPa
387.15 K | – | 100 kPa
388.15 K | – | 100 kPa
389.15 K | 880 kg/m3 | –
390.15 K | – | 100 kPa
391.15 K | – | 110 kPa
392.15 K | – | 110 kPa
393.15 K | – | 110 kPa
394.15 K | – | 120 kPa
395.15 K | – | 120 kPa
397.15 K | – | 130 kPa
398.15 K | – | 130 kPa
399.15 K | – | 130 kPa
400.15 K | – | 140 kPa
401.15 K | – | 140 kPa
403.15 K | – | 150 kPa
404.15 K | – | 150 kPa
405.15 K | – | 160 kPa
406.15 K | 850 kg/m3 | 160 kPa
407.15 K | – | 170 kPa
408.15 K | – | 170 kPa
409.15 K | – | 180 kPa
411.15 K | – | 180 kPa
412.15 K | – | 190 kPa
413.15 K | – | 190 kPa
414.15 K | – | 200 kPa
415.15 K | 840 kg/m3 | 200 kPa
417.15 K | – | 210 kPa
418.15 K | – | 220 kPa
419.15 K | – | 220 kPa
420.15 K | – | 230 kPa
421.15 K | – | 230 kPa
422.15 K | – | 240 kPa
424.15 K | – | 250 kPa
425.15 K | – | 260 kPa
426.15 K | – | 260 kPa
427.15 K | – | 270 kPa
428.15 K | – | 280 kPa
429.15 K | – | 280 kPa
430.15 K | – | 290 kPa
432.15 K | – | 300 kPa
433.15 K | – | 310 kPa
434.15 K | 800 kg/m3 | 320 kPa
435.15 K | – | 320 kPa
436.15 K | – | 330 kPa
437.15 K | – | 340 kPa
439.15 K | – | 350 kPa
440.15 K | 800 kg/m3 | 360 kPa
441.15 K | – | 360 kPa
442.15 K | – | 370 kPa
443.15 K | – | 380 kPa
444.15 K | – | 390 kPa
445.15 K | – | 400 kPa
447.15 K | – | 410 kPa
448.15 K | – | 410 kPa
449.15 K | – | 420 kPa
450.15 K | – | 430 kPa
451.15 K | – | 440 kPa
452.15 K | – | 450 kPa
453.15 K | – | 460 kPa
454.15 K | – | 470 kPa
456.15 K | – | 480 kPa
457.15 K | – | 490 kPa
458.15 K | – | 500 kPa
459.15 K | – | 510 kPa
460.15 K | – | 520 kPa
461.15 K | – | 530 kPa
462.15 K | – | 550 kPa
463.15 K | 750 kg/m3 and 770 kg/m3 | 560 kPa
465.15 K | – | 570 kPa
466.15 K | – | 580 kPa
467.15 K | – | 590 kPa
468.15 K | – | 610 kPa
469.15 K | – | 620 kPa
470.15 K | – | 630 kPa
471.15 K | – | 650 kPa
472.15 K | – | 660 kPa
474.15 K | – | 670 kPa
475.15 K | – | 690 kPa
476.15 K | – | 700 kPa
477.15 K | – | 720 kPa
478.15 K | – | 730 kPa
479.15 K | – | 750 kPa
480.15 K | 710 kg/m3 | 760 kPa
481.15 K | – | 780 kPa
482.15 K | – | 790 kPa
483.15 K | 730 kg/m3 | 810 kPa
485.15 K | – | 820 kPa
486.15 K | – | 840 kPa
487.15 K | – | 860 kPa
488.15 K | – | 870 kPa
489.15 K | – | 890 kPa
490.15 K | – | 910 kPa
491.15 K | – | 920 kPa
492.15 K | – | 940 kPa
493.15 K | – | 960 kPa
494.15 K | – | 980 kPa
495.15 K | – | 1000 kPa
497.15 K | – | 1010 kPa
498.15 K | – | 1030 kPa
499.15 K | – | 1050 kPa
500.15 K | – | 1070 kPa
501.15 K | – | 1090 kPa
502.15 K | 690 kg/m3 | 1110 kPa
503.15 K | – | 1130 kPa
504.15 K | – | 1150 kPa
505.15 K | – | 1160 kPa
506.15 K | – | 1180 kPa
507.15 K | – | 1200 kPa
508.15 K | – | 1220 kPa
509.15 K | – | 1250 kPa
510.15 K | – | 1270 kPa
512.15 K | – | 1280 kPa
513.15 K | – | 1300 kPa
514.15 K | – | 1320 kPa and 1340 kPa
516.15 K | – | 1360 kPa
517.15 K | – | 1380 kPa
518.15 K | – | 1400 kPa
519.15 K | 650 kg/m3 | 1420 kPa
520.15 K | – | 1440 kPa
521.15 K | – | 1460 kPa
522.15 K | – | 1480 kPa
532.15 K | 610 kg/m3 | –
